Assay [1] has as its system spindle assembly checkpoint. Description: SAC-Formation - Paclitaxel-Induced Assay. The note with it: Homo sapiens; HeLa cells, paclitaxel 0.05 μM, 24 h, phosphorylated histone H3 on serine 10. The class given is cell-based. The text has this:
The spindle assembly checkpoint assures the proper segregation of chromosomes during mitosis. Upon entry into mitosis, chromosomes begin to condensate which is accompanied by the phosphorylation of histone H3 on serine 10. Dephosphorylation of histone H3 on serine 10 begins in anaphase and ends at early telophase. Accordingly, phosphorylation of histone H3 on serine 10 can be utilized as a marker of cells in mitosis. Nocodazole is a microtubule destabilizing substance. Paclitaxel is a microtubule stabilizing compound. Thus, nocodazole as well as paclitaxel interfere with microtubule dynamics and mobilize the spindle assembly checkpoint. […] The mitotic breakthrough can be detected by the decrease of cells with phosphorylation of histone H3 on serine 10. This decline is used as a marker to determine the capability of compounds of the present invention to induce a mitotic breakthrough. The typical morphological alteration of nuclei with a prematurely completed mitosis after SAC-inhibition can be monitored via image analysis routines supporting those findings.
The nocodazole and paclitaxel variations were used to focus on compounds that are capable of inhibiting a SAC induced by both microtubule destabilization as well as microtubule stabilization. When SAC inducing agents and compounds are given simultaneously, inhibitors that effectively block the SAC during formation or abrogation are identified. When cells are incubated with a SAC inducing agent and the SAC interfering compound is given after a defined time, inhibitors are identified that effectively block SAC abrogation.
Cultivated cells of the human cervical tumor cell line HeLa (ATCC CCL-2) were plated at a density of 1000 cells/well in a 1536-well microtiter plate in 2 μl PAA Ham's F12 Medium supplemented with 1% (v/v) glutamine, 1% (v/v) penicillin, 1% (v/v) streptomycin and 10% (v/v) fetal calf serum. After incubation overnight at 37° C., 10 μl/well paclitaxel at a final concentration of 0.05 μM were added to cells. Test compounds solubilized in dimethyl sulfoxide (DMSO) were added at various concentrations (0 μM, as well as in the range of 0.005 μM-20 μM; the final concentration of the solvent DMSO was 0.5% (v/v)). Cells were incubated for 24 h at 37° C. in the presence of test compounds in combination with paclitaxel. Thereafter, cells were fixed in 4% (v/v) paraformaldehyde in phosphate buffered saline (PBS) at 4° C. overnight then permeabilized in 0.1% (v/v) Triton X™ 100 in PBS at room temperature for 20 min and blocked in 0.5% (v/v) bovine serum albumin (BSA) in PBS at room temperature for 15 min. After washing with PBS, 5 μl/well antibody solution (anti-phospho-histone H3 clone 3H10, FITC; Millipore, Cat #16-222; 1:1000 dilution) was added to cells, which were incubated for 2 h at room temperature. Afterwards, cells were washed with PBS and 5 μl/well solution of HOECHST 33342 dye (5 μg/ml) was added to cells and cells were incubated 15 min at room temperature in the dark. Cells were washed twice with PBS then covered with PBS and stored at 4° C. until analysis. Images were acquired with a PERKIN ELMER OPERA™ High-Content Analysis reader. Images were analyzed with image analysis software MetaXpress™ from Molecular devices utilizing the Mitotic Index application module. In this assay both labels HOECHST 33342 and phosphorylated Histone H3 on serine 10 were measured. HOECHST 33342 labels the DNA and is used to count the cell number. The staining of phosphorylated Histone H3 on serine 10 determines the number of mitotic cells. […] Otherwise cells were arrested at G2/M phase of the cell cycle progression. The raw assay data were further analyzed by four-parametric hill equation using Genedata's Assay Analyzer and Condoseo software.

In the next assay the target is human Bub1 (Homo sapiens (Human), UniProt O43683). Description: Bub1 kinase assay (TR-FRET). The class given is biochemical. The note with it: 10 μM ATP; read-out: Bub1 avg (IC50 [mol/l]). The source says:
Bub1-inhibitory activity of compounds of the present invention was quantified employing the Bub1 TR-FRET assay as described in the following paragraphs.
N-terminally His6-tagged recombinant catalytic domain of human Bub1 (amino acids 704-1085), expressed in insect cells (Hi5) and purified by Ni-NTA affinity chromatography and subsequent size exclusion chromatography, was used as enzyme. As substrate for the kinase reaction the biotinylated peptide biotin-Ahx-VLLPKKSFAEPG (C-terminus in amid form) was used which can be purchased e.g. form the company Biosyntan (Berlin, Germany).
For the assay 50 nl of a 100 fold concentrated solution of the test compound in DMSO was pipetted into a black low volume 384 well microtiter plate (Greiner Bio-One, Frickenhausen, Germany), 2 μl of a solution of Bub1 in aqueous assay buffer [50 mM Tris/HCl pH 7.5, 10 mM magnesium chloride (MgCl2), 200 mM potassium chloride (KCl), 1.0 mM dithiothreitol (DTT), 0.1 mM sodium ortho-vanadate, 1% (v/v) glycerol, 0.01% (w/v) bovine serum albumine (BSA), 0.005% (v/v) Trition X-100 (Sigma), 1× Complete EDTA-free protease inhibitor mixture (Roche)] were added and the mixture was incubated for 15 min at 22° C. to allow pre-binding of the test compounds to the enzyme before the start of the kinase reaction. Then the kinase reaction was started by the addition of 3 μl of a solution of adenosine-tri-phosphate (ATP, 16.7 μM=>final conc. in the 5 μl assay volume is 10 μM) and substrate (1.67 μM=>final conc. in the 5 μl assay volume is 1 μM) in assay buffer and the resulting mixture was incubated for a reaction time of 60 min at 22° C. The concentration of Bub1 was adjusted depending of the activity of the enzyme lot and was chosen appropriate to have the assay in the linear range, typical concentrations were in the range of 200 ng/ml. The reaction was stopped by the addition of 5 μl of a solution of TR-FRET detection reagents (0.2 μM streptavidine-XL665 [Cisbio Bioassays, Codolet, France] and 1 nM anti-phosho-Serine antibody [Merck Millipore, cat. #35-001] and 0.4 nM LANCE EU-W1024 labeled anti-mouse IgG antibody [Perkin-Elmer, product no. AD0077, as an alternative a Terbium-cryptate-labeled anti-mouse IgG antibody from Cisbio Bioassays can be used]) in an aqueous EDTA-solution (50 mM EDTA, 0.2% (w/v) bovine serum albumin in 100 mM HEPES pH 7.5).
The resulting mixture was incubated 1 h at 22° C. to allow the formation of complex between the phosphorylated biotinylated peptide and the detection reagents. Subsequently the amount of phosphorylated substrate was evaluated by measurement of the resonance energy transfer from the Eu-chelate to the streptavidine-XL. Therefore, the fluorescence emissions at 620 nm and 665 nm after excitation at 350 nm was measured in a TR-FRET reader, e.g. a Rubystar or Pherastar (both from BMG Labtechnologies, Offenburg, Germany) or a Viewlux (Perkin-Elmer). The ratio of the emissions at 665 nm and at […] was taken as the measure for the amount of phosphorylated substrate. The data were normalised (enzyme reaction without inhibitor=0% inhibition, all other assay components but no enzyme=100% inhibition).

Sequence of human Bub1 (O43683 704-1085): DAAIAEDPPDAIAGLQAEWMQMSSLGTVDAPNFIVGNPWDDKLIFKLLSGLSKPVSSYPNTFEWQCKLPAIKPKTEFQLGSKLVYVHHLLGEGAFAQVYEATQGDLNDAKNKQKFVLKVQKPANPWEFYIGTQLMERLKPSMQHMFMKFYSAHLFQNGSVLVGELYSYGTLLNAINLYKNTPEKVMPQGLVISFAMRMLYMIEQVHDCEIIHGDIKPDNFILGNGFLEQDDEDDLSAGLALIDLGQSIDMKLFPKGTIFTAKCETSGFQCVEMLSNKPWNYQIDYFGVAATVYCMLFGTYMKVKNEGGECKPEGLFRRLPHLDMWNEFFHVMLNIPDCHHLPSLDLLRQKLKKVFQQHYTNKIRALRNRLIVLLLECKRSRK

For the compound `Cc1nsc(Nc2nc3c(C(F)(F)F)ccnc3s2)c1C(=O)Nc1ccc(Cl)c(F)c1` [Example 103, N-(4-Chloro-3-fluorophenyl)-3-methyl-5-{[7-(trifluoromethyl)[1,3]thiazolo[5,4-b]pyridin-2-yl]amino}-1,2-thiazole-4-carboxamide], the IC50 is 0.82 µM in assay [1] and more than 20 µM at human Bub1.

For `Cc1nsc(Nc2ccc(C#N)cn2)c1C(=O)Nc1ccc(F)c(F)c1` [Example 28, 5-[(5-Cyanopyridin-2-yl)amino]-N-(3,4-difluorophenyl)-3-methyl-1,2-thiazole-4-carboxamide], the IC50 is 0.072 µM in assay [1] and more than 20 µM at human Bub1.

As to `Cc1nsc(Nc2cncc(C(=O)N3CCCC3)n2)c1C(=O)Nc1ccc(F)c(F)c1` [Example 106, N-(3,4-Difluorophenyl)-3-methyl-5-{[6-(pyrrolidin-1-ylcarbonyl)pyrazin-2-yl]amino}-1,2-thiazole-4-carboxamide], the IC50 in assay [1] was 0.32 µM; at human Bub1 it was more than 20 µM.

`Cc1nsc(Nc2cnc3ccccc3n2)c1C(=O)Nc1ccc(Oc2ccccc2)nc1` [Example 112, 3-Methyl-N-(6-phenoxypyridin-3-yl)-5-(quinoxalin-2-ylamino)-1,2-thiazole-4-carboxamide]: the IC50 in assay [1] is 0.057 µM; on human Bub1, more than 20 µM.

Take `COc1ccc(Oc2ccc(NC(=O)c3c(C)nsc3Nc3cnc4ccccc4n3)cn2)cc1` [Example 116, N-[6-(4-Methoxyphenoxy)pyridin-3-yl]-3-methyl-5-(quinoxaline-2-ylamino)-1,2-thiazole-4-carboxamide]: the IC50 was 4.8 µM in assay [1] and more than 20 µM on human Bub1.

For the compound `Cc1nsc(Nc2cnccn2)c1C(=O)Nc1ccc(Cl)c(F)c1` [Example 56, N-(4-Chloro-3-fluorophenyl)-3-methyl-5-(pyrazin-2-ylamino)-1,2-thiazole-4-carboxamide], the IC50 in assay [1] is 0.25 µM; at human Bub1 it was more than 20 µM.

For `CCc1ccccc1NC(=O)c1c(C)nsc1Nc1ncnc2sccc12` [Example 12, N-(2-Ethylphenyl)-3-methyl-5-(thieno[2,3-d]pyrimidin-4-ylamino)-1,2-thiazole-4-carboxamide], the IC50 was 6.9 µM in assay [1] and more than 20 µM on human Bub1.

Take `CCc1ccccc1NC(=O)c1c(C)nsc1Nc1ncnc2ccccc12` [Example 10, N-(2-Ethylphenyl)-3-methyl-5-(quinazolin-4-ylamino)-1,2-thiazole-4-carboxamide]: the IC50 in assay [1] is 11 µM; on human Bub1, more than 20 µM.

`Cc1nsc(Nc2cnc3ccccc3n2)c1C(=O)Nc1ccc(Cl)c(F)c1` [Example 40, N-(4-Chloro-3-fluorophenyl)-3-methyl-5-(quinoxalin-2-ylamino)-1,2-thiazole-4-carboxamide]: the IC50 is 0.12 µM in assay [1] and more than 20 µM at human Bub1.

For `CCOC(=O)c1cnn2ccc(Nc3snc(C)c3C(=O)Nc3ccc(F)c(F)c3)nc12` [Example 55, Ethyl 5-({4-[(3,4-difluorophenyl)carbamoyl]-3-methyl-1,2-thiazol-5-yl}amino)-pyrazolo[1,5-a]pyrimidine-3-carboxylate], the results for the IC50 (in assay [1]; at human Bub1) were 0.46 µM and more than 20 µM, respectively.

In the case of `CCc1ccccc1NC(=O)c1c(C)nsc1Nc1cnccn1` [Example 1, N-(2-Ethylphenyl)-3-methyl-5-(pyrazin-2-ylamino)-1,2-thiazole-4-carboxamide], the IC50 in assay [1] was 4.9 µM; at human Bub1, more than 20 µM.

Regarding `Cc1nsc(Nc2cncc(C(=O)N3CCOCC3)n2)c1C(=O)Nc1ccc(F)c(F)c1` [Example 107, N-(3,4-Difluorophenyl)-3-methyl-5-{[6-(morpholin-4-ylcarbonyl)pyrazin-2-yl]amino}-1,2-thiazole-4-carboxamide], the IC50 was 0.21 µM in assay [1] and more than 20 µM at human Bub1.

With `CCc1ccccc1NC(=O)c1c(C)nsc1Nc1ncnc2ccsc12` [Example 13, N-(2-Ethylphenyl)-3-methyl-5-(thieno[3,2-d]pyrimidin-4-ylamino)-1,2-thiazole-4-carboxamide], the IC50 in assay [1] was 2.1 µM; at human Bub1 it was more than 20 µM.

On to `COc1ccc(NC(=O)c2c(C)nsc2Nc2ccc(C#N)cn2)cn1` [Example 39, 5-[(5-Cyanopyridin-2-yl)amino]-N-(6-methoxypyridin-3-yl)-3-methyl-1,2-thiazole-4-carboxamide], for which the values for the IC50 (in assay [1]; at human Bub1) were 1.3 µM and more than 20 µM, respectively.

For the compound `Cc1nsc(Nc2cncc(N(C)C)n2)c1C(=O)Nc1ccc(F)c(F)c1` [Example 105, N-(3,4-Difluorophenyl)-5-{[6-(dimethylamino)pyrazin-2-yl]amino}-3-methyl-1,2-thiazole-4-carboxamide], the IC50 in assay [1] is 20 µM; at human Bub1, more than 20 µM.

As to `COc1ccc(NC(=O)c2c(C)nsc2Nc2cc(C#N)ccn2)cn1` [Example 25, 5-[(4-Cyanopyridin-2-yl)amino]-N-(6-methoxypyridin-3-yl)-3-methyl-1,2-thiazole-4-carboxamide], the IC50 in assay [1] was 1.2 µM; at human Bub1, more than 20 µM.

With `CCOC(=O)c1cnc(Nc2snc(C)c2C(=O)Nc2ccc(F)c(F)c2)o1` [Example 96, Ethyl 2-({4-[(3,4-difluorophenyl)carbamoyl]-3-methyl-1,2-thiazol-5-yl}amino)-1,3-oxazole-5-carboxylate], the IC50 in assay [1] is 1.4 µM; on human Bub1, more than 20 µM.

(Values after patent publication US9682995B2, “Amino-substituted isothiazoles” (BAYER PHARMA AKTIENGESELLSCHAFT, priority 2013, dated 2017).)
